From ChEMBL document CHEMBL3046404, “The cytotoxic effects of diketopiperaizes against Leishmania donovani promastigotes and amastigotes” (Med Chem Res, 2013)
Values after ≈ are worked out from the molar mass of the structure shown.

What was measured:
Leishmania donovani [1] = test: Antileishmanial activity against promastigote form of Leishmania donovani MHOH/IN/1983/AG83 after 2 hr by MTT assay; type: functional, organism-based
[2] = Toxicity against BALB/c Mus musculus (mouse) peritoneal macrophages assessed as concentration required for cell lysis after 48 hr; type: cell-based, Peritoneal macrophage cell; details: read-out: Activity
Leishmania donovani [3] = test: microbe, parasite or virus in culture; details: MHOH/IN/1983/AG83, 48 h
Description: Antileishmanial activity against amastigote form of Leishmania donovani MHOH/IN/1983/AG83 infected BALB/c mouse peritoneal macrophages after 48 hr by Geimsa staining method

Leishmania donovani [4] = test: Antileishmanial activity against promastigote form of Leishmania donovani MHOH/IN/1983/AG83 infected in BALB/c mouse assessed as reduction in parasite burden in liver at 10 mg/kg, ip administered 1 month post-infection 2 times per week for 30 days relative to control; type: functional; design: scale not given: the % may be the effect or the level left; details: route intraperitoneal
Leishmania donovani [5] = test: Antileishmanial activity against promastigote form of Leishmania donovani MHOH/IN/1983/AG83 infected BALB/c mouse assessed as spleen weight at 10 mg/kg, ip administered 1 month post-infection 2 times per week for 30 days (reference value: 509 +/- 25 mg); type: functional; details: route intraperitoneal
Leishmania donovani [6] = test: Antileishmanial activity against amastigote form of Leishmania donovani MHOH/IN/1983/AG83 infected BALB/c mouse peritoneal macrophages at 10 ug/ml after 48 hr by Geimsa staining method relative to control; type: functional
Leishmania donovani [7] = test: Antileishmanial activity against promastigote form of Leishmania donovani MHOH/IN/1983/AG83 infected in BALB/c mouse assessed as reduction in parasite burden in spleen at 10 mg/kg, i.p. administered 1 month post-infection 2 times per week for 30 days relative to control; type: functional; design: scale not given: the % may be the effect or the level left; details: route intraperitoneal
Mus musculus [8] = test: Toxicity against BALB/c Mus musculus (mouse) assessed as blood urea level at 10 mg/kg, ip administered 2 times per week for 30 days (reference value: 29 +/- 6 mg/dl); type: organism-based; design: dose 10 mg/kg, route intraperitoneal; details: in vivo, 720 h
Mus musculus [9] = test: Toxicity against BALB/c Mus musculus (mouse) assessed as SGOT level at 10 mg/kg, ip administered 2 times per week for 30 days (reference value: 71 +/- 4 IU/l); type: organism-based; design: dose 10 mg/kg, route intraperitoneal; details: in vivo, 720 h
Mus musculus [10] = test: Toxicity against BALB/c Mus musculus (mouse) assessed as SGPT level at 10 mg/kg, ip administered 2 times per week for 30 days (reference value: 28 +/- 5 IU/l); type: organism-based; design: dose 10 mg/kg, route intraperitoneal; details: in vivo, 720 h
Leishmania donovani [11] = test: Antileishmanial activity against promastigote form of Leishmania donovani MHOH/IN/1983/AG83 infected BALB/c mouse assessed as liver weight at 10 mg/kg, ip administered 1 month post-infection 2 times per week for 30 days (reference value: 1,746 +/- 56 mg); type: functional; details: route intraperitoneal
Leishmania donovani [12] = test: Antileishmanial activity against promastigote form of Leishmania donovani MHOH/IN/1983/AG83 infected BALB/c mouse assessed as reduction in parasite burden in liver at 250 mg/kg, ip administered 1 month post-infection 2 times per week for 30 days relative to control; type: functional, organism-based; design: dose 250 mg/kg; scale not given: the % may be the effect or the level left
Leishmania donovani [13] = test: Antileishmanial activity against promastigote form of Leishmania donovani MHOH/IN/1983/AG83 infected BALB/c mouse assessed as reduction in parasite burden in spleen at 250 mg/kg, ip administered 1 month post-infection 2 times per week for 30 days relative to control; type: functional, organism-based; design: dose 250 mg/kg; scale not given: the % may be the effect or the level left
Leishmania donovani [14] = test: Antileishmanial activity against promastigote form of Leishmania donovani MHOH/IN/1983/AG83 infected BALB/c mouse assessed as liver weight at 250 mg/kg, ip administered 1 month post-infection 2 times per week for 30 days (reference value: 1,746 +/- 56 mg); type: functional, organism-based; design: dose 250 mg/kg
Leishmania donovani [15] = test: Antileishmanial activity against promastigote form of Leishmania donovani MHOH/IN/1983/AG83 infected BALB/c mouse assessed as spleen weight at 250 mg/kg, ip administered 1 month post-infection 2 times per week for 30 days (reference value: 509 +/- 25 mg); type: functional, organism-based; design: dose 250 mg/kg
Leishmania donovani [16] = test: Antileishmanial activity against promastigote form of Leishmania donovani MHOH/IN/1983/AG83 infected BALB/c mouse assessed as spleen weight at 4 mg/kg, ip administered 1 month post-infection 2 times per week for 30 days (reference value: 509 +/- 25 mg); type: functional; details: route intraperitoneal
Leishmania donovani [17] = test: Antileishmanial activity against promastigote form of Leishmania donovani MHOH/IN/1983/AG83 infected BALB/c mouse assessed as reduction in parasite burden in liver at 4.5 mg/kg, ip administered 1 month post-infection 2 times per week for 30 days relative to control; type: functional; design: scale not given: the % may be the effect or the level left; details: route intraperitoneal
Leishmania donovani [18] = test: Antileishmanial activity against promastigote form of Leishmania donovani MHOH/IN/1983/AG83 infected in BALB/c mouse assessed as reduction in parasite burden in spleen at 4.5 mg/kg, i.p. administered 1 month post-infection 2 times per week for 30 days relative to control; type: functional; design: scale not given: the % may be the effect or the level left; details: route intraperitoneal
Mus musculus [19] = test: Toxicity against BALB/c Mus musculus (mouse) assessed as blood urea level at 4 mg/kg, ip administered 2 times per week for 30 days (reference value: 29 +/- 6 mg/dl); type: organism-based; design: dose 4 mg/kg, route intraperitoneal; details: in vivo, 720 h
Mus musculus [20] = test: Toxicity against BALB/c Mus musculus (mouse) assessed as SGOT level at 4 mg/kg, ip administered 2 times per week for 30 days (reference value: 71 +/- 4 IU/l); type: organism-based; design: dose 4 mg/kg, route intraperitoneal; details: in vivo, 720 h
Mus musculus [21] = test: Toxicity against BALB/c Mus musculus (mouse) assessed as SGPT level at 4 mg/kg, ip administered 2 times per week for 30 days (reference value: 28 +/- 5 IU/l); type: organism-based; design: dose 4 mg/kg, route intraperitoneal; details: in vivo, 720 h
Leishmania donovani [22] = test: Antileishmanial activity against promastigote form of Leishmania donovani MHOH/IN/1983/AG83 infected BALB/c mouse assessed as liver weight at 4 mg/kg, ip administered 1 month post-infection 2 times per week for 30 days (reference value: 1,746 +/- 56 mg); type: functional; details: route intraperitoneal
[23] = Leishmania donovani, MHOH/IN/1983/AG83, 2 h, read-out: IC50

Row | Molecule | IC50 (Leishmania donovani [1]; [23]) | MCC at 48 h [2] | IC50 (Leishmania donovani [3]) | Activity (Leishmania donovani [5]) | Activity (Mus musculus [8]) | Activity (Mus musculus [9]) | Activity (Mus musculus [10]) | also measured
1 | COc1ccc(N2CC(=O)N(c3ccc(OC)cc3)CC2=O)cc1 | 21.8 µg/mL (≈ 66.8 µM) | > 60 µg/mL | 2.2 µg/mL (≈ 6.74 µM) | – | – | – | – | –
2 | O=C1CN(C2CCCCC2)C(=O)CN1C1CCCCC1 | 0.7 µg/mL (≈ 2.51 µM) | > 50 µg/mL | 1.1 µg/mL (≈ 3.95 µM) | 139 mg | 31 mg/dL | 73 IU/L | 30 IU/L | Activity (Leishmania donovani [4]): 81.74%; Activity (Leishmania donovani [6]): 84.66%; Activity (Leishmania donovani [7]): 80.95%; Activity (Leishmania donovani [11]): 1076 mg
3 | SODIUM ANTIMONY GLUCONATE | – | – | – | – | – | – | – | Activity (Leishmania donovani [12]): 57.7%; Activity (Leishmania donovani [13]): 60.2%; Activity (Leishmania donovani [14]): 1320 mg; Activity (Leishmania donovani [15]): 303 mg
4 | O=C1CN(c2c(Cl)cc(Cl)cc2Cl)C(=O)CN1c1c(Cl)cc(Cl)cc1Cl | 9.4 µg/mL (≈ 19.9 µM) | > 70 µg/mL | > 10 µg/mL | – | – | – | – | –
5 | Cc1ccc(N2CC(=O)N(c3ccc(C)cc3)CC2=O)cc1 | 1.1 µg/mL (≈ 3.74 µM) | > 40 µg/mL | 1.8 µg/mL (≈ 6.12 µM) | 184 mg | 34 mg/dL | 75 IU/L | 33 IU/L | Activity (Leishmania donovani [11]): 1127 mg
6 | O=C1CN(c2ccccc2Cl)C(=O)CN1c1ccccc1Cl | 1.02 µg/mL (≈ 3.04 µM) | > 25 µg/mL | 0.61 µg/mL (≈ 1.82 µM) | 106 mg | 30 mg/dL | 72 IU/L | 28 IU/L | Activity (Leishmania donovani [4]): 80.37%; Activity (Leishmania donovani [6]): 92%; Activity (Leishmania donovani [7]): 71.81%; Activity (Leishmania donovani [11]): 976 mg
7 | O=C1CN(c2cc(Cl)ccc2Cl)C(=O)CN1c1cc(Cl)ccc1Cl | 2.6 µg/mL (≈ 6.43 µM) | > 60 µg/mL | 6.6 µg/mL (≈ 16.3 µM) | – | – | – | – | –
8 | COc1ccc(Cl)cc1N1CC(=O)N(c2cc(Cl)ccc2OC)CC1=O | – | > 100 µg/mL | – | – | – | – | – | IC50 (Leishmania donovani [1]): Not Active
9 | O=C1CN(c2cccc(Cl)c2)C(=O)CN1c1cccc(Cl)c1 | 1 µg/mL (≈ 2.98 µM) | > 25 µg/mL | 0.53 µg/mL (≈ 1.58 µM) | 87 mg | 29 mg/dL | 67 IU/L | 28 IU/L | Activity (Leishmania donovani [4]): 94.75%; Activity (Leishmania donovani [16]): 155 mg; Activity (Leishmania donovani [17]): 69.73%; Activity (Leishmania donovani [6]): 92.19%; Activity (Leishmania donovani [7]): 91.35%; Activity (Leishmania donovani [18]): 67.97%; Activity (Mus musculus [19]): 28 mg/dL; Activity (Mus musculus [20]): 69 IU/L; Activity (Mus musculus [21]): 29 IU/L; Activity (Leishmania donovani [22]): 1134 mg
10 | O=C1CN(c2ccccc2)C(=O)CN1c1ccccc1 | 1.4 µg/mL (≈ 5.26 µM) | > 30 µg/mL | 1.6 µg/mL (≈ 6.01 µM) | 166 mg | 32 mg/dL | 74 IU/L | 34 IU/L | Activity (Leishmania donovani [11]): 999 mg
11 | N=C(N)c1ccc(OCCCCCOc2ccc(C(=N)N)cc2)cc1 [PENTAMIDINE] | 2.1 µg/mL (≈ 6.17 µM) | > 90 µg/mL | 2.8 µg/mL (≈ 8.22 µM) | – | – | – | – | –
12 | CC(=O)c1cccc(N2CC(=O)N(c3cccc(C(C)=O)c3)CC2=O)c1 | 3.4 µg/mL (≈ 9.7 µM) | > 50 µg/mL | 2 µg/mL (≈ 5.71 µM) | – | – | – | – | –
13 | O=C1CN(c2ccc(Cl)cc2Cl)C(=O)CN1c1ccc(Cl)cc1Cl | 2.9 µg/mL (≈ 7.18 µM) | > 35 µg/mL | 6.4 µg/mL (≈ 15.8 µM) | – | – | – | – | –
14 | O=C1CN(c2cccc(Cl)c2Cl)C(=O)CN1c1cccc(Cl)c1Cl | 2.2 µg/mL (≈ 5.44 µM) | > 50 µg/mL | 4.3 µg/mL (≈ 10.6 µM) | – | – | – | – | –
15 | C[C@@H]1[C@H](O)[C@@H](C)/C=C/C=C/C=C/C=C/C=C/C=C/C=C/[C@H](O[C@@H]2O[C@H](C)[C@@H](O)[C@H](N)[C@@H]2O)C[C@@H]2O[C@](O)(C[C@@H](O)C[C@@H](O)[C@H](O)CC[C@@H](O)C[C@@H](O)CC(=O)O[C@H]1C)C[C@H](O)[C@H]2C(=O)O [AMPHOTERICIN B] | – | > 4 µg/mL | 0.1 µg/mL (≈ 0.108 µM) | – | – | – | – | –
